pIC50: −log10 of the molar value. Read-outs that look alike come from different tables or passages of the source.
Assays:
HIV-1LAI Wild Type = test: AlamarBlue viability assay, HIV-1LAI-infected MT4 cells; type: cell-based; conditions: 10% FCS
Outline: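 MT4 cells infected with HIV-1LAI (MOI 0.01, supernatant infection) cultured 5 days at 37 °C with compounds in RPMI with 2% or 10% FCS, 1% DMSO final. AlamarBlue fluorescence after 3 h; EC50 as 50% protection relative to uninfected cells, CC50 from high-concentration cytotoxicity.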

HIV-1NL4-3 K103N-Y181C = test: Luminescence reduction assay, MT4 cells infected with HIV-1NL4-3 luciferase reporter virus, RT mutant K103N-Y181C; type: cell-based
Outline: (§1)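 Compound dilution series in 1% DMSO, with 2% or 10% FCS, incubated 5 days at 37° C/5% CO2 with MT4 cells previously pellet-infected (2 h) by luciferase reporter NL4-3 virus, wild type or carrying RT resistance mutations. EC50 taken where luminescence from secreted luciferase falls to 50% of untreated infected control.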

HIV-1NL4-3 Wild Type = test: Luminescence reduction assay, MT4 cells infected with HIV-1NL4-3 luciferase reporter virus, wild type; type: cell-based; conditions: 2% FCS
Outline: as §1

reverse transcriptase = target: T1, reverse transcriptase (Human immunodeficiency virus type 1 group M subtype B, UniProt P04585); test: Biochemical reverse transcriptase assay (Reverse Transcriptase Assay, colorimetric, Roche); conditions: colorimetric RT assay, DMSO 1%
T1 construct: negative control (batch without reverse transcriptase); purchased Roche Diagnostics GmbH, Mannheim, Germany
Method: The “Reverse Transcriptase Assay, colorimetric” (Roche Diagnostics GmbH, Mannheim, Germany) is used according to manufacturers' instructions. The test substances are dissolved in DMSO and used in diluted form in the test in the five steps (DMSO final concentration: 1%). The resulting values of the photometric analysis (405/492 nm) are smaller than 0.1 in the negative control (batch without reverse transcriptase) and are in the range of 1.5 in the positive control (batch without test substance). The IC50 values of the test substances are determined as the concentration of the test substance dilution, in which the measured optical density is 50% of the positive control.

[1] = Human immunodeficiency virus 1, MT4, MT4 cells
[2] = Human immunodeficiency virus 1, MT4, read-out: EC50 (μM) MT4 Cells HIV-1NL4-3 K103N-Y181C 2% FCS, MT4 cells, HIV-1NL4-3 K103N-Y181C, 2% FCS
[3] = read-out: EC50 (μM) MT4 Cells HIV-1NL4-3 K103N-Y181C 2% FCS, MT4 cells, HIV-1NL4-3 K103N-Y181C, 2% FCS

Compound	EC50 (HIV-1LAI Wild Type; [1]) [µM]	EC50 (HIV-1NL4-3 K103N-Y181C; [2]) [µM]	EC50 (HIV-1NL4-3 Wild Type; [1]) [µM]	pIC50 (reverse transcriptase)	EC50 (HIV-1LAI Wild Type; MT4 cells) [µM]	EC50 (HIV-1NL4-3 K103N-Y181C; [3]) [µM]	EC50 (HIV-1NL4-3 Wild Type; MT4 cells) [µM]
O=C1CN(C(=O)c2cc(-c3cc(F)cc(OC(F)(F)F)c3)n(-c3cccnc3)n2)CCN1 [Example 58]	0.955	1.09	0.204	7.25	–	–	–
O=C1CN(C(=O)c2cc(-c3cc(Br)cc(OC(F)(F)F)c3)n(-c3cccnc3)n2)CN1 [Example 28, 1-({5-[3-Bromo-5-(trifluoromethoxy)phenyl]-1-(pyridin-3-yl)-1H-pyrazol-3-yl}carbonyl)imidazolidin-4-one]	0.044	0.005	0.005	6.67	–	–	–
COc1cc(-n2nc(C(=O)N3CNC(=O)C3)cc2-c2cc(Br)cc(OC(F)(F)F)c2)ccn1 [Example 55, 1-({5-[3-Bromo-5-(trifluoromethoxy)phenyl]-1-(2-methoxypyridin-4-yl)-1H-pyrazol-3-yl}carbonyl)imidazolidin-4-one]	0.104	0.01	0.003	–	–	–	–
O=C1CN(C(=O)c2cc(-c3cc(Cl)cc(OC(F)F)c3)n(-c3cccnc3)n2)CN1 [Example 81, 1-({5-[3-Chloro-5-(difluoromethoxy)phenyl]-1-(pyridin-3-yl)-1H-pyrazol-3-yl}carbonyl)imidazolidin-4-one]	0.015	0.008	0.003	–	–	–	–
O=C(c1cc(-c2cc(F)cc(OC(F)(F)F)c2)n(-c2cccnc2)n1)N1CC[S+]([O-])C1 (racemic) [Example 60, {5-[3-Fluoro-5-(trifluoromethoxy)phenyl]-1-(pyridin-3-yl)-1H-pyrazol-3-yl}(1-oxido-1,3-thiazolidin-3-yl)methanone]	–	–	–	–	0.997	0.621	0.077
COc1cc(OC(F)(F)F)cc(-c2cc(C(=O)N3CNC(=O)C3)nn2-c2cccnc2)c1 [Example 84, 1-({5-[3-Methoxy-5-(trifluoromethoxy)phenyl]-1-(pyridin-3-yl)-1H-pyrazol-3-yl}carbonyl)imidazolidin-4-one]	0.048	0.008	0.01	–	–	–	–
O=C(c1cc(-c2cc(F)cc(Cl)c2)n(-c2cccnc2)n1)N1CC[S+]([O-])C1 (racemic) [Example 6, [5-(3-Chloro-5-fluorophenyl)-1-(pyridin-3-yl)-1H-pyrazol-3-yl](1-oxido-1,3-thiazolidin-3-yl)methanone]	–	–	–	–	0.201	1.36	0.054
O=C(c1cc(-c2cc(Cl)cc(OC(F)F)c2)n(-c2cccnc2)n1)N1CCSC1 [Example 82, {5-[3-Chloro-5-(difluoromethoxy)phenyl]-1-(pyridin-3-yl)-1H-pyrazol-3-yl}(1,3-thiazolidin-3-yl)methanone]	0.348	0.307	0.016	–	–	–	–
O=C1CN(C(=O)c2cc(-c3cc(Br)cc(OC(F)(F)F)c3)n(-c3ccc(Cl)nc3)n2)CN1 [Example 34, 1-({5-[3-Bromo-5-(trifluoromethoxy)phenyl]-1-(6-chloropyridin-3-yl)-1H-pyrazol-3-yl}carbonyl)imidazolidin-4-one]	0.098	0.003	0.01	–	–	–	–
O=C1CN(C(=O)c2cc(-c3cc(F)cc(OC(F)F)c3)n(-c3ccnc(Cl)c3)n2)CN1 [Example 68, 1-({1-(2-Chloropyridin-4-yl)-5-[3-(difluoromethoxy)-5-fluorophenyl]-1H-pyrazol-3-yl}carbonyl)imidazolidin-4-one]	0.326	0.193	0.062	–	–	–	–
O=C1CN(C(=O)c2cc(-c3cc(F)cc(OCC(F)(F)F)c3)n(-c3cccnc3)n2)CCN1 [Example 71, 4-({5-[3-Fluoro-5-(2,2,2-trifluoroethoxy)phenyl]-1-(pyridin-3-yl)-1H-pyrazol-3-yl}carbonyl)piperazin-2-one]	0.246	> 3.3	0.013	–	–	–	–
O=C1CN(C(=O)c2cc(-c3cc(Br)cc(OC(F)F)c3)n(-c3cccnc3)n2)CN1 [Example 56, 1-({5-[3-Bromo-5-(difluoromethoxy)phenyl]-1-(pyridin-3-yl)-1H-pyrazol-3-yl}carbonyl)imidazolidin-4-one]	0.011	0.005	0.002	–	–	–	–
O=C(c1cc(-c2cc(F)cc(OC(F)(F)F)c2)n(-c2ccnc(Cl)c2)n1)N1CCSC1 [Example 104, {1-(2-Chloropyridin-4-yl)-5-[3-fluoro-5-(trifluoromethoxy)phenyl]-1H-pyrazol-3-yl}(1,3-thiazolidin-3-yl)methanone]	> 3.3	≥ 3.3	0.58	–	–	–	–
O=C1CN(C(=O)c2cc(-c3cnc(F)c(Cl)c3)n(-c3cccc(Cl)c3)n2)CN1 [Example 110, 1-{[5-(5-Chloro-6-fluoropyridin-3-yl)-1-(3-chlorophenyl)-1H-pyrazol-3-yl]carbonyl}imidazolidin-4-one]	0.025	0.039	0.024	–	–	–	–
O=C1CN(C(=O)c2cc(-c3cc(F)cc(Cl)c3)n(-c3cccc(Cl)n3)n2)CN1 [Example 2, 1-{[5-(3-Chloro-5-fluorophenyl)-1-(6-chloropyridin-2-yl)-1H-pyrazol-3-yl]carbonyl}imidazolidin-4-one]	> 3.3	> 3.3	0.272	–	–	–	–
O=C1CN(C(=O)c2cc(-c3cc(Br)cc(OC(F)(F)F)c3)n(-c3ccnc(C(F)(F)F)c3)n2)CCN1 [Example 116, 4-({5-[3-Bromo-5-(trifluoromethoxy)phenyl]-1-[2-(trifluoromethyl)pyridin-4-yl]-1H-pyrazol-3-yl}carbonyl)piperazin-2-one]	> 3.3	0.896	0.648	–	–	–	–
O=C(c1cc(-c2cc(Br)cc(OC(F)(F)F)c2)n(-c2cccnc2)n1)N1CCSC1 [Example 30, (5-[3-Bromo-5-(trifluoromethoxy)phenyl]-1-(pyridin-3-yl)-1H-pyrazol-3-yl) (1,3-thiazolidin-3-yl)methanone]	0.794	0.181	0.033	–	–	–	–
O=C1CN(C(=O)c2cc(-c3cc(F)cc(Cl)c3)n(-c3ccnc(C(F)(F)F)c3)n2)CCN1 [Example 17]	3.67	> 3.3	0.248	–	–	–	–
O=C(c1cc(-c2cc(Br)cc(OC(F)(F)F)c2)n(-c2ccc(Cl)nc2)n1)N1CCSC1 [Example 36, {5-[3-Bromo-5-(trifluoromethoxy)phenyl]-1-(6-chloropyridin-3-yl)-1H-pyrazol-3-yl}(1,3-thiazolidin-3-yl)methanone]	2.37	0.08	0.149	–	–	–	–
O=C(c1cc(-c2cc(F)cc(Cl)c2)n(-c2cccnc2)n1)N1CC[S+]([O-])C1 (racemic) [Example 6-1, [5-(3-Chloro-5-fluorophenyl)-1-(pyridin-3-yl)-1H-pyrazol-3-yl](1-oxido-1,3-thiazolidin-3-yl)methanone]	–	–	–	–	1.49	> 3.3	0.255
O=C1CN(C(=O)c2cc(-c3cc(Br)cc(OC(F)(F)F)c3)n(-c3ccnc(C(F)(F)F)c3)n2)CN1 [Example 50, 1-({5-[3-Bromo-5-(trifluoromethoxy)phenyl]-1-[2-(trifluoromethyl)pyridin-4-yl]-1H-pyrazol-3-yl}carbonyl)imidazolidin-4-one]	1.86	0.167	0.102	–	–	–	–
O=C1CN(C(=O)c2cc(-c3cc(F)cc(Br)c3)n(-c3ccnc(Cl)c3)n2)CCN1 [Example 93, 4-{[5-(3-Bromo-5-fluorophenyl)-1-(2-chloropyridin-4-yl)-1H-pyrazol-3-yl]carbonyl}piperazin-2-one]	0.137	0.256	0.016	–	–	–	–
O=C1CN(C(=O)c2cc(-c3cc(F)cc(OC(F)(F)F)c3)n(-c3cccnc3)n2)CN1 [Example 57, 1-({5-[3-Fluoro-5-(trifluoromethoxy)phenyl]-1-(pyridin-3-yl)-1H-pyrazol-3-yl}carbonyl)imidazolidin-4-one]	0.183	0.05	0.016	–	–	–	–
O=C1CN(C(=O)c2cc(-c3cc(F)cc(OC(F)F)c3)n(-c3cccnc3)n2)CCN1 [Example 67]	0.641	0.721	0.051	–	–	–	–
O=C1CN(C(=O)c2cc(-c3cc(F)cc(OC(F)F)c3)n(-c3cccnc3)n2)CN1 [Example 66, 1-({5-[3-(Difluoromethoxy)-5-fluorophenyl]-1-(pyridin-3-yl)-1H-pyrazol-3-yl}carbonyl)imidazolidin-4-one]	0.083	0.058	0.013	–	–	–	–
O=C(c1cc(-c2cc(F)cc(OC(F)(F)F)c2)n(-c2cccnc2)n1)N1CC[S+]([O-])C1 (racemic) [Example 60-2, {5-[3-Fluoro-5-(trifluoromethoxy)phenyl]-1-(pyridin-3-yl)-1H-pyrazol-3-yl}(1-oxido-1,3-thiazolidin-3-yl)methanone]	–	–	–	–	0.797	0.446	0.084

Source: US9296720B2, “Carboxamide-substituted heteroaryl-pyrazoles and the use thereof” (AiCuris GmbH & Co. KG, priority 2011, dated 2016)
